We go through three molecules from ChEMBL document CHEMBL1130544, “Catalysis of the Kemp elimination by antibodies elicited against a cationic hapten” (Bioorg Med Chem Lett, 1997).

Common to all, as to format: ADME
The nature of series [1]: Kinetic parameter for antibody-catalyzed Kemp elimination, at pH 7.1, 30C, using 5% acetonitrile and 4B2 as catalyst was expressed as KM.
Series [2] can be described thus: Kinetic parameter for antibody-catalyzed Kemp elimination, at pH 7.1, 30C, using 10% acetonitrile and 4B2 as catalyst was expressed as Kcat/KM.
A short description of series [3]: Kinetic parameter for antibody-catalyzed Kemp elimination, at pH 7.1, 30C, using 5% acetonitrile and 4B2 as catalyst was expressed as Kcat/KM.
A short description of series [4]: Rate constant at 30 degree C in phosphate buffer pH 7.1, 0.5 % acetonitrile was expressed as Kcat/KM.
A short description of series [5]: Kinetic parameter for antibody-catalyzed Kemp elimination, at pH 7.1, 30C, using 1% acetonitrile and 4B2 as catalyst was expressed as Kcat/Kuncat.
Series [6] is described as follows: Kinetic parameter for antibody-catalyzed Kemp elimination, at pH 7.1, 30C, using 5% acetonitrile and 4B2 as catalyst was expressed as Kcat/Kuncat.
Series [7] can be described thus: Kinetic parameter for antibody-catalyzed Kemp elimination, at pH 7.1, 30C, using 1% acetonitrile and 4B2 as catalyst was expressed as Kcat.
Series [8] can be described thus: Kinetic parameter for antibody-catalyzed Kemp elimination, at pH 7.1, 30C, using 5% acetonitrile and 4B2 as catalyst was expressed as Kcat.
Series [9] can be described thus: Kinetic parameter for antibody-catalyzed Kemp elimination, at pH 7.1, 30C, using 0.25% acetonitrile and 4B2 as catalyst was expressed as Kcat/KM.
Series [10] in a line: Kinetic parameter for antibody-catalyzed Kemp elimination, at pH 7.1, 30C, using 1% acetonitrile and 4B2 as catalyst was expressed as Kcat/KM.
Series [11] is described as follows: Kinetic parameter for antibody-catalyzed Kemp elimination, at pH 7.1, 30C, using 1% acetonitrile and 6C2 as catalyst was expressed as Kcat/KM.
The nature of series [12]: Rate constant ratio at 30 degree C in phosphate buffer pH 7.1, 0.5 % acetonitrile.
Series [13] is described as follows: Rate constant with triethylamine at 30 degree C in 0.1 M potassium chloride was expressed as Kamine.
Series [14] can be described thus: Kinetic parameter for antibody-catalyzed Kemp elimination, at pH 7.1, 30C, using 1% acetonitrile and 4B2 as catalyst was expressed as KM.

Regarding `O=[N+]([O-])c1ccc2oncc2c1`, the Michaelis constant (Km) in series [1] is 2100 µM; in [14], 1200 µM. The “k cat/Km” value in [2] is 5.9 M⁻¹ s⁻¹; in series [3], 10.1 M⁻¹ s⁻¹; in [4], 39 M⁻¹ s⁻¹; in series [9], 53 M⁻¹ s⁻¹; in [10], 29.1 M⁻¹ s⁻¹; in series [11] it was 1.4 M⁻¹ s⁻¹. Also, the k cat/Kuncat in series [5] was 18000; in series [6], 6300. Also, the k cat in [7] turned out to be 0.035 s⁻¹; in [8], 0.022 s⁻¹. For the same molecule, in [12], the Ratio is listed as 48. The molecule further registered a K amine in series [13] of 0.82 M⁻¹ s⁻¹.
Turning to `O=[N+]([O-])c1ccc2cnoc2c1`, in [4], the “k cat/Km” value was 6 M⁻¹ s⁻¹. Moreover, the Ratio in series [12] was 38. In [13], this molecule had a K amine of 0.16 M⁻¹ s⁻¹.
Take `c1ccc2oncc2c1` [BENZO[D]ISOXAZOLE]: in series [4], the “k cat/Km” value is 0.6 M⁻¹ s⁻¹. The Ratio in series [12] is 32. Besides, the K amine in series [13] came out at 0.0185 M⁻¹ s⁻¹.
